Our source for the therapeutic efficacy, delayed death and IC50 values is patent US5843937A (priority 1996, dated 1998).

Each structure is given as a SMILES string.

System in the first series: not given
Test: not given
Particulars: antitumor use; cited from earlier work.
`Cn1cc(NC(=O)c2cc(NC(=O)CN=C(N)N)cn2C)cc1C(=O)NCCC(=N)N` [netropsin]: the therapeutic efficacy entry is listed as “low therapeutic efficacy”.
For `Cn1cc(NC(=O)c2cc(NC(=O)c3cc(NC=O)cn3C)cn2C)cc1C(=O)NCCC(=N)N` [distamycin], the therapeutic efficacy result is recorded as “low therapeutic efficacy”.

System in another series: not given
Test: not given
Particulars: prior compounds; experimental animals (CC-1065); cited from earlier work.
In the case of `CCN(CC)c1ccc2cc(C(=O)Nc3ccc4[nH]c(C(=O)N5C[C@@H](CCl)c6c5cc(OC(=O)Nc5ccccc5)c5[nH]cc(C)c65)cc4c3)oc2c1` [U-80244], the delayed death result was “do not cause delayed death”.
For `COC(=O)c1c(C)[nH]c2c(OC(=O)N3CCN(C)CC3)cc3c(c12)[C@H](CBr)CN3C(=O)c1cc2cc(OC)c(OC)c(OC)c2[nH]1` [KW 2189], the delayed death entry is recorded as “do not cause delayed death”.
Turning to `Cc1c[nH]c2c(O)cc3c(c12)[C@H](CCl)CN3C(=O)c1cc2cc(NC(=O)Nc3ccc4[nH]c(C(=O)N5C[C@@H](CCl)c6c5cc(O)c5[nH]cc(C)c65)cc4c3)ccc2[nH]1` [U-77779], the delayed death entry was “do not cause delayed death”.
As for `Cc1c[nH]c2c1[C@@]13C[C@@H]1CN(C(=O)c1cc4cc(NC(=O)c5cc6ccccc6o5)ccc4[nH]1)C3=CC2=O` [U-73975], the delayed death result was “do not cause delayed death”.

The next series has as its system U937 Cells. The series can be described thus: Cytotoxicity of Invented Compounds Against U937 Cells. The series is classed as cell-based. To be noted: 48 h incubation, 3H-thymidine last 24 h. The protocol:
Some of the new compounds were tested for their cytotoxicity against cancer cells. U937 cells were used to determine the IC50 values. The assay was set up in triplicate in 96 well flat bottom microtiter plates. All cells are seeded at 5×10^3 cells/well in RPMI-1640 plus 10% FCS. Drugs were added and the total volume was adjusted to 0.2 mL/well. Total incubation time was 48 h with the addition of ^3 H-thymidine for the last 24 h of incubation. The assay was harvested and counted with the packard Matrix 96 beta counter. The results were expressed as the percent growth inhibition calculated from the percent decrease in cpm of treated cells relative to the untreated controls.
A word on the IC50: it is the point on the concentration scale where inhibition reaches its midpoint. Regarding `O=C(C=Cc1cc2ccccc2o1)Nc1ccc2[nH]c(C(=O)N3CC(CCl)c4c3cc(O)c3ccccc43)cc2c1` (stereo not drawn) [YW-215, 3-[[5-[(1H-Benzofuran-2-ylacrylyl)amino]-1H-indol-2-yl]carbony 1]-1-(chloromethyl)-5-hydroxy-1,2-dihydro-3H-benz[e]indole], the 50% inhibitory concentration (IC50) amounted to 0.09 nM.
Same read-out and setting: for `CC(=O)Nc1cc(C(=O)N2CC(CCl)c3c2cc(O)c2ccccc32)n(C)c1` (stereo not drawn) [YW-161, 3-[(4-Acetamino-1-methylpyrrole-2-yl)carbony:L]-1-(chloromethyl)-5-hydroxy-1,2-dihydro-3H-benz[e]indole] the value was 5 nM.

Staying with this series, now noted: Homo sapiens, U-937, 48 h incubation, 3H-thymidine last 24 h.
`CC(=O)Nc1ccc2oc(C(=O)Nc3ccc4[nH]c(C(=O)N5CC(CCl)c6c5cc(O)c5ccccc65)cc4c3)cc2c1` (stereo not drawn) [YW-201, 3-[[5-[[5-(Acetamino)-1H-benzofuran-2-ylcarbonyl]amino]-1H-indol-2-yl]carbonyl]-1-(chloromethyl)-5-hydroxy-1,2-dihydro-3H-benz[e]indole]: it took 0.07 nM to reach half-maximal inhibition (IC50).
As for `O=C(CCCO)Nc1ccc2[nH]c(C(=O)N3CC(CCl)c4c3cc(O)c3ccccc43)cc2c1` (stereo not drawn) [YW-231, 3-[[5-[(4-Hydroxy)butyramino]-1H-indol-2'-yl]carbonyl]-1-(chloromethyl)-5-hydroxy-1,2-dihydro-3H-benz[e]indole], it took 0.6 nM to reach half-maximal inhibition (IC50).
On the same count and under the same terms, for `COc1cccc2c1C(=O)c1c(O)c3c(c(O)c1C2=O)C[C@@](O)(C(=O)CO)C[C@@H]3O[C@H]1C[C@H](N)[C@H](O)[C@H](C)O1` [Doxorubicin, reference compound] the value was 100 nM; for `O=C(CCCO)Nc1ccc2[nH]c(C(=O)Nc3ccc4[nH]c(C(=O)Nc5ccc6[nH]c(C(=O)N7CC(CCl)c8c7cc(O)c7ccccc87)cc6c5)cc4c3)cc2c1` (stereo not drawn) [YW-259], 0.09 nM.
The compound `CC(=O)Nc1ccc2[nH]c(C(=O)N3CC(CCl)c4c3cc(O)c3ccccc43)cc2c1` (stereo not drawn) [YW-198, 3-[[5-(acetamino)-1H-indol-2'-yl]carbonyl]-1-(chloromethyl)-5-hydroxy-1,2-dihydro-3H-benz[e]indole] returned an IC50 of 0.2 nM.
Still for that read-out and setting: as for `CC(=O)Nc1ccc2[nH]c(C=CC(=O)N3CC(CCl)c4c3cc(O)c3ccccc43)cc2c1` (stereo not drawn) [YW-202, 3-[[5-(acetamino)-1H-indol-2-yl]acrylyl]-1-(chloromethyl)-5-hydroxy-1,2-dihydro-3H-benz[e]indole], the figure is 0.2 nM; as for `Nc1ccc2[nH]c(C(=O)N3CC(CCl)c4c3cc(O)c3ccccc43)cc2c1` (stereo not drawn) [YW-242, 3-[(5-Amino-1H-indol-2'-yl)carbonyl]-1-(chloromethyl)-5-hydroxy-1,2-dihydro-3H-benz[e]indole], 0.09 nM.
Compound `COC(=O)[C@H]1O[C@@H](OCCCC(=O)Nc2ccc3[nH]c(C(=O)Nc4ccc5[nH]c(C(=O)Nc6ccc7[nH]c(C(=O)N8CC(CCl)c9c8cc(O)c8ccccc98)cc7c6)cc5c4)cc3c2)[C@H](OC(C)=O)[C@@H](OC(C)=O)[C@@H]1OC(C)=O` (stereo partly drawn) [YW-258, 3-[[5-[[5-[[5-[4-(Methyl 2,3,4-tri-O-acetyl-1-deoxy-b-D-glucuronate)butyramino]-1H-indo 1-2-ylcarbonyl]amino]-1H-indol-2-ylcarbonyl]amino]-1H-indol-2-yl]carbonyl]-1-(chloromethyl)-5-hydroxy-1,2-dihydro-3H-benz[e] indole] yielded an IC50 of 0.08 nM.
`CCCC(=O)Nc1cc(C=CC(=O)N2CC(CCl)c3c2cc(O)c2ccccc32)n(C)c1` (stereo not drawn) [YW-222, 3-(4-Butyramido-1-methyl-2-pyrroleacryloylcarbonyl)-1-(chloromethyl)-5-hydroxy-1,2-dihydro-3H-benz[e]indole] gave a half-maximal inhibitory concentration (IC50) of 0.5 nM.
For `Cn1cc(N)cc1C(=O)N1CC(CCl)c2c1cc(O)c1ccccc21` (stereo not drawn) [YW-284, 3-[(4-Amino-1-methylpyrrole-2-yl)carbonyl]-1-(chloromethyl)-5-hydroxy-1,2-dihydro-3H-benz[e]indole], the midpoint of inhibition, the IC50, lay at 9 nM.
Compound `CC(=O)Nc1ccc2oc(C(=O)Nc3ccc4[nH]c(C(=O)N5CC6CC67C5=CC(=O)c5ccccc57)cc4c3)cc2c1` (stereo not drawn) [YW-213, N^2-[[5-[[[5-(Acetamino)-1H-benzofuran-2-yl]carbonyl]amino]-1H-indol-2-yl]carbonyl]1,2,9,9a-tetrahydrocyclopropa[c]-benz[e]indol-4-one] showed an IC50 of 0.2 nM.
`COC(=O)[C@H]1O[C@@H](OCCCC(=O)Nc2ccc3[nH]c(C(=O)N4CC(CCl)c5c4cc(O)c4ccccc54)cc3c2)[C@H](OC(C)=O)[C@@H](OC(C)=O)[C@@H]1OC(C)=O` (stereo partly drawn) [YW-247, 3-[[5-[4-(Methyl 2,3,4-tri-O-acetyl-1-deoxy-b-D-glucuronate)butyramino]-1H-indol-2'-yl]carbonyl]-1-(chloromethyl)-5-hydroxy-1,2-dihydro-3H-benz[e]indole]: the 50% inhibitory concentration (IC50) came out at 1.4 nM.
Still for that read-out and setting: as for `O=C(CCCC[C@@H]1SC[C@@H]2NC(=O)N[C@@H]21)Nc1ccc2[nH]c(C(=O)N3CC(CCl)c4c3cc(O)c3ccccc43)cc2c1` (stereo partly drawn) [YW-235, 3-[[5-(Biotin-amino)-1H-indol-2'-yl]carbonyl]-1-(chloromethyl)-5-hydroxy-1,2-dihydro-3H-benz[e]indole], the figure is 0.7 nM; as for `COC(=O)[C@H]1O[C@@H](OCCCC(=O)Nc2ccc3[nH]c(C(=O)Nc4ccc5[nH]c(C(=O)N6CC(CCl)c7c6cc(O)c6ccccc76)cc5c4)cc3c2)[C@H](OC(C)=O)[C@@H](OC(C)=O)[C@@H]1OC(C)=O` (stereo partly drawn) [YW-249, 3-[[5-[[5-[4-(Methyl 2,3,4-tri-O-acetyl-1-deoxy-b-D-glucuronate)butyramino]-1H-indol-2-ylcarbonyl]amino]-1H-indol-2-yl]carbony 1]-1-(chloromethyl)-5-hydroxy-1,2-dihydro-3H-benz[e]indole], 0.55 nM.
Regarding `O=C(Cc1cccs1)N[C@@H]1C(=O)N2C(C(=O)O)=C(COC(=O)Nc3ccc4[nH]c(C(=O)N5CC(CCl)c6c5cc(O)c5ccccc65)cc4c3)C[S+]([O-])[C@H]12` (stereo partly drawn) [YW-285], the IC50 worked out at 0.9 nM.
On to `O=C(CCCO)Nc1ccc2[nH]c(C(=O)Nc3ccc4[nH]c(C(=O)N5CC(CCl)c6c5cc(O)c5ccccc65)cc4c3)cc2c1` (stereo not drawn) [YW-254, 3-[[5-[[5-[4-(Hydroxy)butyramino]-1H-indol-2-ylcarbonyl]amino]-1H-indol-2-yl]carbonyl]-1-(chloromethyl)-5-hydroxy-1,2-dihydro-3H-benz[e]indole], for which the half-maximal inhibitory concentration (IC50) came to 0.1 nM.

The subject of another series is B16 Melanoma. The series can be described thus: Cytotoxicity of Invented Compounds Against B16 Melanoma. In kind it is cell-based. Particulars: Mus musculus.
`O=C(CCCO)Nc1ccc2[nH]c(C(=O)N3CC(CCl)c4c3cc(O)c3ccccc43)cc2c1` (stereo not drawn) [YW-231, 3-[[5-[(4-Hydroxy)butyramino]-1H-indol-2'-yl]carbonyl]-1-(chloromethyl)-5-hydroxy-1,2-dihydro-3H-benz[e]indole]: the 50% inhibitory concentration (IC50) worked out at 4 nM.
In turn, `COc1cccc2c1C(=O)c1c(O)c3c(c(O)c1C2=O)C[C@@](O)(C(=O)CO)C[C@@H]3O[C@H]1C[C@H](N)[C@H](O)[C@H](C)O1` [Doxorubicin, reference compound] gave a half-inhibitory concentration (IC50) of 780 nM.
In turn, `Nc1ccc2[nH]c(C(=O)N3CC(CCl)c4c3cc(O)c3ccccc43)cc2c1` (stereo not drawn) [YW-242, 3-[(5-Amino-1H-indol-2'-yl)carbonyl]-1-(chloromethyl)-5-hydroxy-1,2-dihydro-3H-benz[e]indole] came in with an IC50 of 11 nM.
On to `CC(=O)Nc1ccc2[nH]c(C(=O)Nc3ccc4[nH]c(C(=O)N5CC(CCl)c6c5cc(O)c5ccccc65)cc4c3)cc2c1` (stereo not drawn) [YW-200, 3-[[5-[[5-(Acetamino)-1H-indol-2-ylcarbonyl]amino]-1H-indol-2-yl]carbonyl]-1-(chloromethyl)-5-hydroxy-1,2-dihydro-3H-benz[e]indole], for which the IC50 came out at 7.2 nM.

For the next series, the system named is human liver cancer HepG2 cells. In words: Cytotoxicity of Mab-YW-242 conjugates against liver cancer HepG2 cells (3H-thymidine incorporation). The series is classed as cell-based. To be noted: 1 h drug incubation, washed, overnight with 3H-thymidine, read-out: IC50 Values of the Mab-drug Conjugate. The protocol: Using such potent molecules for monoclonal antibody-drug conjugate has advantages over using low potency agents. The tumor specific antibody will carry these molecules specifically to tumor cells, thus enhancing the therapeutic efficacy of these compounds. The monoclonal antibody-drug conjugates are still very toxic to cancer cells. The Mab-YW-242 conjugates were tested in vitro against human liver cancer HepG2 cells. IC50 values for cell proliferation were determined by incorporation of ^3 H-thymidine.
The conjugates were tested in vitro against human liver cancer HepG2 cells. IC50 values for cell proliferation were determined by incorporation of ^3 H-thymidine. 4×10^4 of trypsinized cells in 0.1 mL of DMEM medium containing 10% of heat-inactivated FCS were added to each well of 96-well microtiter plates and incubated for 4 h at 37° C. to allow attachment of the cells. Drugs in 10 μL of PBS were added and incubated for 1 h at 37° C. Medium was removed and the cells were washed with PBS (0.2 mL). Fresh medium (0.1 mL) and ^3 H-thymidine (10 μL) were added. The cells were incubated overnight at 37° C. The cells were treated with trypsin-EDTA for 15 min at 37° C. and then harvested using a micromate 196 harvester. Radioactivity was counted and IC50 values were determined.
In general terms: Dividing cells build labelled thymidine or BrdU into new DNA.
As for `COc1cccc2c1C(=O)c1c(O)c3c(c(O)c1C2=O)C[C@@](O)(C(=O)CO)C[C@@H]3O[C@H]1C[C@H](N)[C@H](O)[C@H](C)O1` [Doxorubicin, reference compound], the concentration for half-maximal inhibition (IC50) worked out at 6000 nM.
Same read-out and setting: for `Nc1ccc2[nH]c(C(=O)N3CC(CCl)c4c3cc(O)c3ccccc43)cc2c1` (stereo not drawn) [YW-242, 3-[(5-Amino-1H-indol-2'-yl)carbonyl]-1-(chloromethyl)-5-hydroxy-1,2-dihydro-3H-benz[e]indole] the value was 200 nM.
